Source: ChEMBL document CHEMBL1152614, “Design, synthesis and evaluation of monovalent ligands for the asialoglycoprotein receptor (ASGP-R)” (Bioorg Med Chem, 2009)

Biological target: T1, Asialoglycoprotein receptor 1 (Homo sapiens) (UniProt P07306)
T1 sequence (whole entry): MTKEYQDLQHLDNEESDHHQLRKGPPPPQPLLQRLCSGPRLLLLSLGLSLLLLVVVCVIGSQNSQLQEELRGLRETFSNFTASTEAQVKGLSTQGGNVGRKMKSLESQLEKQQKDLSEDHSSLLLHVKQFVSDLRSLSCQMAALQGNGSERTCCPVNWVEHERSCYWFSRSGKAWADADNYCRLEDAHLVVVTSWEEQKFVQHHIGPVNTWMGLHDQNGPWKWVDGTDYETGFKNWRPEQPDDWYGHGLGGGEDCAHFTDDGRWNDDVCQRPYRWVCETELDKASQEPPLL
Test: Inhibition of D-GalNAc-PAA binding to human recombinant ASGPR1 carbohydrate recognition domain expressed in Escherichia coli AD494 by competitive solid-phase binding assay relative to D-GalNAc

In order of rising Ratio IC50:
1. N#Cc1ccc(OCc2cn([C@H]3CO[C@H](CO)[C@H](O)[C@@H]3O)nn2)cc1  0.5
2. O=[N+]([O-])c1ccc(OCc2cn([C@H]3CO[C@H](CO)[C@H](O)[C@@H]3O)nn2)cc1  0.8
3. CN1CCN(c2ccc(OCc3cn([C@H]4CO[C@H](CO)[C@H](O)[C@@H]4O)nn3)cc2)CC1  0.9
4. CC(=O)N[C@H]1C(O)O[C@H](CO)[C@H](O)[C@@H]1O (some centres not stated)  1
5. OC[C@H]1OC[C@H](n2cc(COc3ccccc3)nn2)[C@@H](O)[C@H]1O  1.1
6. OC[C@H]1OC[C@H](n2cc(COc3c(F)c(F)c(F)c(F)c3F)nn2)[C@@H](O)[C@H]1O  1.4
7. O=C(O)c1ccc(OCc2cn([C@H]3CO[C@H](CO)[C@H](O)[C@@H]3O)nn2)cc1  8.7
8. [N-]=[N+]=N[C@H]1CO[C@H](CO)[C@H](O)[C@@H]1O  13.7

With O=S(=O)(Nc1ccc(OCc2cn([C@H]3CO[C@H](CO)[C@H](O)[C@@H]3O)nn2)cc1)C(F)(F)F the “Ratio IC50” value was “Insoluble”.

Biological target: not listed separately
Test: Inhibition of [125I]asialoorosomucoid binding to rabbit hepatic ASGPR1
Set-up: species or system Oryctolagus cuniculus

In order of rising IC50:
1. OC[C@H]1O[C@@H](O)[C@H](O)[C@@H](O)[C@H]1O [b-D-GALACTOSE]  1.7 mM
2. OC[C@H]1O[C@@H](O)[C@H](O)[C@@H](O)[C@@H]1O [beta-D-Glucose]  60 mM

Biological target: T1, Asialoglycoprotein receptor 1 (Homo sapiens)
Test: Inhibition of D-GalNAc binding to human recombinant ASGPR1 carbohydrate recognition domain expressed in Escherichia coli AD494 by competitive NMR binding assay relative to D-GalNAc

N#Cc1ccc(OCc2cn([C@H]3CO[C@H](CO)[C@H](O)[C@@H]3O)nn2)cc1 showed a relative binding affinity (RBA) of 1.9.
